Experiment [1] has as its target T1, SARS-CoV-2 PLpro (nsp3 1564–1878) (Severe acute respiratory syndrome coronavirus 2, UniProt P0DTD1). The experiment in a line: biochemical. Details: FRET-quenched peptide (Pro3) cleavage by PLpro, 10 min pre-incubation, slope over 20 min, normalised to no-compound control. Conditions: high concentration screen, read-out: % of control remaining.
Experiment [2] concerns the target T1, SARS-CoV-2 PLpro (nsp3 1564–1878). The experiment in a line: biochemical. Details: FRET-quenched peptide (Pro3) cleavage by PLpro, 10 min pre-incubation, slope over 20 min, normalised to no-compound control. Conditions: low concentration screen, read-out: % of control remaining.

Each structure is given as a SMILES string. Structures can show the parent of a compound that is named as a salt. Where two headings read alike, the source gives them in different places.

Consider `CC(C)(C)NC[C@H](O)COc1nsnc1N1CCOCC1` [(S)-Timolol maleate], for which the remaining activity at 3.75 µM in experiment [1] (Well no.=1739) was found to be 97.3%. In addition, the remaining activity at 1.25 µM in experiment [2] (Well no.=1739) is 98.8%.

On to `OC[C@H]1O[C@@H](n2cnc3c(NCCc4c[nH]c5ccccc45)ncnc32)[C@H](O)[C@@H]1O` [A2AR-agonist-1], for which the remaining activity at 3.75 µM in experiment [1] (Well no.=8653) is 105%. The remaining activity at 1.25 µM in experiment [2] (Well no.=8653) was determined as 105%.

For the compound `NC[C@@H]1O[C@H](C23CC4CC(CC(C4)C2)C3)Cc2c1ccc(O)c2O` [A-77636 hydrochloride], in experiment [1] (Well no.=212), the remaining activity at 3.75 µM came to 99.3%. For the same compound, the remaining activity at 1.25 µM in experiment [2] (Well no.=212) came out at 102%.

In the case of `Cc1[nH]nc2ccc(-c3cncc(OC[C@@H](N)Cc4ccccc4)c3)cc12` [A-674563], in experiment [1] (Well no.=2991), the remaining activity at 3.75 µM was determined as 99.1%. For the same compound, the remaining activity at 1.25 µM in experiment [2] (Well no.=2991) worked out at 97%.

Take `COc1ccc(CC(=O)NC(N=C(NC#N)Nc2cccc3ncccc23)C(C)(C)C)cc1OC` (centres unmarked) [A-740003]: the remaining activity at 3.75 µM in experiment [1] (Well no.=5421) was determined as 96.3%. In experiment [2] (Well no.=5421), the remaining activity at 1.25 µM was found to be 92%.

For the compound `COc1cc(NC(=O)c2ccc(-c3ccc(Cl)cc3)o2)cc(OC)c1` [A-803467], the remaining activity at 3.75 µM in experiment [1] (Well no.=5117) is 103%. Besides, the remaining activity at 1.25 µM in experiment [2] (Well no.=5117) came to 105%.

For `CCC(=O)c1cc(-c2ccc(Cl)cc2)n(-c2ccc(S(N)(=O)=O)cc2)c1C` [A-867744], the remaining activity at 3.75 µM in experiment [1] (Well no.=8320) turned out to be 94%. The remaining activity at 1.25 µM in experiment [2] (Well no.=8320) came out at 96.8%.

On to `CN(C)CC#Cc1ccc(OCCCc2sc(N3CCc4cccc(C(=O)Nc5nc6ccccc6s5)c4C3)nc2C(=O)O)c(F)c1` [A-1155463], for which the remaining activity at 3.75 µM in experiment [1] (Well no.=6344) stood at 97.3%. The remaining activity at 1.25 µM in experiment [2] (Well no.=6344) worked out at 96.3%.

With `Cc1nn(C)c(COc2ccc(N3CCN(S(=O)(=O)N(C)C)CC3)cc2)c1-c1cccc2c(CCCOc3cccc4ccccc34)c(C(=O)O)n(CCN3CCOCC3)c12` [A-1210477], the remaining activity at 3.75 µM in experiment [1] (Well no.=6970) amounted to 101%. Also, the remaining activity at 1.25 µM in experiment [2] (Well no.=6970) stood at 99.5%.

In the case of `Cc1c(-c2ccc(N3CCc4cccc(C(=O)Nc5nc6ccccc6s5)c4C3)nc2C(=O)O)cnn1CC12CC3CC(CC(C3)C1)C2` [A-1331852], the remaining activity at 3.75 µM in experiment [1] (Well no.=6592) came out at 93.5%. Moreover, in experiment [2] (Well no.=6592), the remaining activity at 1.25 µM amounted to 102%.

On to `CC1=C(C)C(=O)C(CCCCC#CCCCC#CCO)=C(C)C1=O` [AA-861], for which the values for the remaining activity at 3.75 µM in experiment [1] (Well no.=109) and in experiment [1] (Well no.=3941) were 103% and 102%, respectively. For the same compound, the remaining activity at 1.25 µM in experiment [2] (Well no.=109) was found to be 106%; in experiment [2] (Well no.=3941), 105%.

For `CCCCC/C=C\C/C=C\C/C=C\C/C=C\CCCC(=O)C(F)(F)F` [AACOCF3], the remaining activity at 3.75 µM in experiment [1] (Well no.=4486) is 102%. Also, in experiment [2] (Well no.=4486), the remaining activity at 1.25 µM is 102%.

In the case of `CNC(=O)[C@H]1O[C@@H](n2cnc3c(NCc4ccc(N)cc4)ncnc32)[C@H](O)[C@@H]1O` [AB-MECA], the remaining activity at 3.75 µM in experiment [1] (Well no.=306) was determined as 87.8%; in experiment [1] (Well no.=8699), 98.3%. The remaining activity at 1.25 µM in experiment [2] (Well no.=306) worked out at 87.3%; in experiment [2] (Well no.=8699), 95.8%.

As for `C[C@@H]1CCCN1CCc1cc2cc(-c3ccc(C#N)cc3)ccc2o1` [ABT-239], the remaining activity at 3.75 µM in experiment [1] (Well no.=8049) is 101%. Besides, the remaining activity at 1.25 µM in experiment [2] (Well no.=8049) amounted to 103%.

Take `Cc1cc([C@@H]2CCCN2C)on1` [ABT-418]: the remaining activity at 3.75 µM in experiment [1] (Well no.=307) is 99.2%. Also, the remaining activity at 1.25 µM in experiment [2] (Well no.=307) came out at 97.8%.

As for `O=C(c1cc(S(=O)(=O)Nc2ccccc2F)c(F)cc1Cl)N1CCN2CCC[C@@H]2C1` [ABT-639], in experiment [1] (Well no.=7880), the remaining activity at 3.75 µM was 95.4%. Also, the remaining activity at 1.25 µM in experiment [2] (Well no.=7880) stood at 94.2%.

As for `CN(C)CC[C@H](CSc1ccccc1)Nc1ccc(S(=O)(=O)NC(=O)c2ccc(N3CCN(Cc4ccccc4-c4ccc(Cl)cc4)CC3)cc2)cc1[N+](=O)[O-]` [ABT-737], the remaining activity at 3.75 µM in experiment [1] (Well no.=2692) stood at 101%; in experiment [1] (Well no.=6348), 96.5%; in experiment [1] (Well no.=8314) it was 97.8%. The remaining activity at 1.25 µM in experiment [2] (Well no.=2692) came out at 102%; in experiment [2] (Well no.=6348), 99.7%; in experiment [2] (Well no.=8314), 98.5%.

For the compound `COc1ccc(S(=O)(=O)Nc2cccnc2Nc2ccc(O)cc2)cc1` [ABT-751], in experiment [1] (Well no.=5226), the remaining activity at 3.75 µM is 92.1%. The remaining activity at 1.25 µM in experiment [2] (Well no.=5226) is 91.8%.

`Cc1ccc(F)c(NC(=O)Nc2ccc(-c3cccc4[nH]nc(N)c34)cc2)c1` [ABT-869]: the remaining activity at 3.75 µM in experiment [1] (Well no.=2740) was determined as 93.3%. In experiment [2] (Well no.=2740), the remaining activity at 1.25 µM came to 94.6%.

Take `C[C@]1(c2nc3c(C(N)=O)cccc3[nH]2)CCCN1` [ABT-888 (Veliparib)]: the remaining activity at 3.75 µM in experiment [1] (Well no.=5222) is 94.2%. In addition, the remaining activity at 1.25 µM in experiment [2] (Well no.=5222) was found to be 95.8%.

For `O=C(Cc1ccc(Cl)c(Cl)c1)OCCN1CCCC1` [AC 915 oxalate], the remaining activity at 3.75 µM in experiment [1] (Well no.=61) came out at 102%. Besides, in experiment [2] (Well no.=61), the remaining activity at 1.25 µM was determined as 104%.

`C/C(=N\NC(=O)C(NC(=O)c1ccccc1)c1n[nH]c(=O)c2ccccc12)c1cccc(Br)c1` (centres unmarked) [AC-55541]: the remaining activity at 3.75 µM in experiment [1] (Well no.=6997) worked out at 106%. In addition, the remaining activity at 1.25 µM in experiment [2] (Well no.=6997) came to 106%.

Turning to `COc1ccc(S(=O)(=O)N2CCC[C@H]2C(=O)Nc2cc(C)cc(C)c2)cc1` [ACT-462206], the remaining activity at 3.75 µM in experiment [1] (Well no.=6052) is 90.9%. For the same compound, in experiment [2] (Well no.=6052), the remaining activity at 1.25 µM came out at 95.5%.

With `CCN(CC)C(=O)c1ccc(C2=CC3(CCNCC3)Oc3cccc(O)c32)cc1` [ADL5859 HCl], the remaining activity at 3.75 µM in experiment [1] (Well no.=5051) stood at 98.3%. Also, the remaining activity at 1.25 µM in experiment [2] (Well no.=5051) came to 101%.

As to `CCN(CC)C(=O)c1ccc(C2=CC3(CCNCC3)Oc3cccc(O)c32)cc1` [ADL-5859], in experiment [1] (Well no.=8013), the remaining activity at 3.75 µM is 85.8%. Moreover, the remaining activity at 1.25 µM in experiment [2] (Well no.=8013) was determined as 92.2%.

Consider `CCN1CCN(Cc2ccc(-c3cc4c(N[C@H](C)c5ccccc5)ncnc4[nH]3)cc2)CC1` [AEE788 (NVP-AEE788)], for which the remaining activity at 3.75 µM in experiment [1] (Well no.=5247) is 102%. Also, the remaining activity at 1.25 µM in experiment [2] (Well no.=5247) was 102%.

Take `CN(C)Cc1ccc(-c2nc3cccc4c3n2CCNC4=O)cc1` [AG14361]: the remaining activity at 3.75 µM in experiment [1] (Well no.=5272) stood at 97.3%. Besides, the remaining activity at 1.25 µM in experiment [2] (Well no.=5272) stood at 98.1%.

For `N#CC(C#N)=C(N)/C(C#N)=C/c1ccc(O)cc1` [AG 112], the remaining activity at 3.75 µM in experiment [1] (Well no.=2609) was 91.5%. Also, in experiment [2] (Well no.=2609), the remaining activity at 1.25 µM is 97%.

Take `N#C/C(=C\c1ccc(O)c(O)c1)C(=O)NCc1ccccc1` [AG 490 - (E)-2-Cyano-3-(3,4-dihydrophenyl)-N-(phenylmethyl)-2-propenamide]: in experiment [1] (Well no.=2332), the remaining activity at 3.75 µM came to 93.5%. The remaining activity at 1.25 µM in experiment [2] (Well no.=2332) was determined as 95%.

For `N#C/C(=C\c1ccc(O)c(O)c1)C(=O)NCc1ccccc1` [AG 490], the remaining activity at 3.75 µM in experiment [1] (Well no.=2607) was found to be 97%. Besides, the remaining activity at 1.25 µM in experiment [2] (Well no.=2607) amounted to 95.5%.

The values above are taken from paper PMC8286840, “Identifying SARS-CoV-2 antiviral compounds by screening for small molecule inhibitors of Nsp3 papain-like protease” (Biochemical Journal, 2021).
